For experiment [1], the species on record is Oryctolagus cuniculus. Kind of experiment: Anticoagulant activity in rabbit plasma assessed as T/C ratio of prothrombin time (reference value: 1). Type of experiment: functional.
For experiment [2], the target named is T1, Coagulation factor X (Homo sapiens, UniProt P00742). Kind of experiment: Inhibition of factor Xa (unknown origin) assessed as residual enzymatic activity at 20 nM.
For experiment [3], the species on record is Oryctolagus cuniculus. Kind of experiment: Anticoagulant activity in rabbit plasma assessed as increase in prothrombin time at 20 to 62500 nM. Type of experiment: functional. The note with it: dose 20-62500 nM.
For experiment [4], the target named is T1, Coagulation factor X. Kind of experiment: Inhibition of factor Xa (unknown origin).
For experiment [5], the target named is T1, Coagulation factor X. As to the kind of experiment: Potency index, ratio of rivaroxaban IC50 to test compound IC50 for inhibition of factor Xa (unknown origin).
The subject of experiment [6] is Rattus norvegicus. Kind of experiment: Antithrombotic activity in […]-induced venous thrombosis rat model assessed as reduction in thrombus weight at 1 mg/kg (reference value: 7.79 +/- 1.62 mg). Format: functional.
In experiment [7] the test system is Rattus norvegicus. As to the kind of experiment: Antithrombotic activity in […]-induced venous thrombosis rat model assessed as thrombus inhibition rate at 1 mg/kg relative to control. Format: functional.
For experiment [8], the system named is Rattus norvegicus. Kind of experiment: Antithrombotic activity in […]-induced venous thrombosis rat model assessed as reduction in thrombus weight at 0.5 mg/kg (reference value: 9.7 +/- 1.62 mg). Format: functional.
Experiment [9] has as its system Rattus norvegicus. As to the kind of experiment: Antithrombotic activity in […]-induced venous thrombosis rat model assessed as thrombus inhibition rate at 0.5 mg/kg relative to control. Type of experiment: functional.
In experiment [10] the test system is Rattus norvegicus. As to the kind of experiment: Antithrombotic activity in FlC3-induced venous thrombosis rat model assessed as reduction in thrombus weight at 1 mg/kg (reference value: 9.7 +/- 1.62 mg). Type of experiment: functional.
The test system of experiment [11] is Rattus norvegicus. As to the kind of experiment: Antithrombotic activity in […]-induced venous thrombosis rat model assessed as reduction in thrombus weight at 2 mg/kg (reference value: 9.7 +/- 1.62 mg). Format: functional.
Experiment [12] concerns Rattus norvegicus. Kind of experiment: Antithrombotic activity in […]-induced venous thrombosis rat model assessed as thrombus inhibition rate at 2 mg/kg relative to control. Format: functional.

Calls of active or inactive are those of the source. The calls are words filed in the database; no cut-off is given here.

T1 sequence (P00742 41-179 limits assumed): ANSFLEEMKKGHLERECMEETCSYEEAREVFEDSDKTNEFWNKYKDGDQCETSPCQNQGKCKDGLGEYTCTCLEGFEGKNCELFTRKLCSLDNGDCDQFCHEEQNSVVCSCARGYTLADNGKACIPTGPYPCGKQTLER
T1 sequence (P00742 235-488 limits assumed): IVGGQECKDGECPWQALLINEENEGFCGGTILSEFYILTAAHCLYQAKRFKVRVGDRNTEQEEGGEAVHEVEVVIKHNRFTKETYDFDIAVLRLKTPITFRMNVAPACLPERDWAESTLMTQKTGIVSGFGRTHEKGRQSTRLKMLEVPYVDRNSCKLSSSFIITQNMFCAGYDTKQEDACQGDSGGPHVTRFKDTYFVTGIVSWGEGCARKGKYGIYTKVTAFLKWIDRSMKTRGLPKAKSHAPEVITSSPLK

Turning to `COc1ccc(-n2cc(C#N)c3ncn(-c4ccc(N5CCOCC5=O)cc4)c(=O)c32)cc1`, in experiment [1], the T/C stood at 1.88. Moreover, the Activity in experiment [2] is 59.8%. For the same compound, the outcome in [3] was Active.

What is called IC50 is the point on the concentration scale where inhibition reaches its midpoint. The low end stands for greater potency in that assay, the high end for weaker potency in that assay. For orientation: inhibition in vivo means the relative decrease from the control value, in per cent. In the case of `COc1ccc(-n2cc(C#N)c3ncn(-c4ccc(N5CCC[C@H]5C(N)=O)cc4)c(=O)c32)cc1`, the T/C in experiment [1] is on record as 1.67. Besides, the Activity in [2] came to 45.8%; in experiment [6], 3.65 mg. The compound further gave an IC50 in experiment [4] of 3.69 nM. In addition, in [5], the Ratio IC50 came to 4. Further, the inhibition in vivo at 1 mg/kg in experiment [7] is 53%.

For `COc1ccc(-n2nc(C(N)=O)c3c2C(=O)N(c2ccc(N4CCCCC4=O)cc2)CC3)cc1` [APIXABAN], the results for the Activity in experiment [6] and in experiment [8] were 3.24 mg and 3.33 mg, respectively. Further, the inhibition in vivo at 1 mg/kg in [7] is 58%. For the same compound, the inhibition in vivo at 0.5 mg/kg in experiment [9] was found to be 66%.

As for `COc1ccc(-n2cc(C(N)=O)c3ncn(-c4ccc(N5CCOCC5=O)cc4)c(=O)c32)cc1`, in [1], the T/C is reported as 1.99. The Activity worked out at 46.7% in [2]; 2.73 mg in experiment [6]; 3.05 mg in experiment [10]; 5.36 mg in experiment [8]; 2.6 mg in experiment [11]. In [4], this compound yielded an IC50 of 1.57 nM. In addition, the Ratio IC50 in experiment [5] came to 9. In experiment [3], the result was Active. Further, the inhibition in vivo at 1 mg/kg in experiment [7] was 65%. Besides, the inhibition in vivo at 0.5 mg/kg in [9] was found to be 45%. For the same compound, the inhibition in vivo at 2 mg/kg in experiment [12] is 73%.

As to `O=C(NC[C@H]1CN(c2ccc(N3CCOCC3=O)cc2)C(=O)O1)c1ccc(Cl)s1` [RIVAROXABAN], in [1], the T/C was found to be 2.03. Further, the Activity in experiment [2] worked out at 45.8%; in [10] it was 2.41 mg. In experiment [7], the inhibition in vivo at 1 mg/kg was 75%.

These data come from ChEMBL document CHEMBL5236667, “Synthesis of pyrrolo[3,2-d]pyrimidineone derivatives as novel FXa inhibitors” (Bioorg Med Chem Lett, 2023).
